From ChEMBL document CHEMBL1821627, “Medicinal chemistry as a conduit for the modulation of quorum sensing” (J Med Chem, 2010)
Where a SMILES comes first, the peptide text is derived from it. Bridges are numbered along the chain shown (N, C = ends).

What was measured:
[1] = Inhibition of Staphylococcus aureus Quorum sensing system AgrC-IV activation after 60 to 90 minutes by beta-lactamase reporter assay
[2] = Inhibition of Staphylococcus aureus Quorum sensing system AgrC-II activation after 60 to 90 minutes by beta-lactamase reporter assay; conditions: read-out: IC50
[3] = Inhibition of Staphylococcus aureus Quorum sensing system AgrC-III activation after 60 to 90 minutes by […]
[4] = Inhibition of Staphylococcus aureus Quorum sensing system AgrC-I activation after 60 to 90 minutes by beta-lactamase reporter assay; conditions: read-out: IC50
[5] = molecular target: T1, Transcriptional activator protein LasR (Pseudomonas aeruginosa (strain ATCC 15692 / PAO1 / 1C / PRS 101 / LMG12228), UniProt P25084); assay: Antagonist activity at Pseudomonas aeruginosa LasR receptor expressed in Escherichia coli in presence of 7.5 nM natural auto-inducer 3-oxo-C12-HSL; format: functional
T1 sequence (P25084 whole entry): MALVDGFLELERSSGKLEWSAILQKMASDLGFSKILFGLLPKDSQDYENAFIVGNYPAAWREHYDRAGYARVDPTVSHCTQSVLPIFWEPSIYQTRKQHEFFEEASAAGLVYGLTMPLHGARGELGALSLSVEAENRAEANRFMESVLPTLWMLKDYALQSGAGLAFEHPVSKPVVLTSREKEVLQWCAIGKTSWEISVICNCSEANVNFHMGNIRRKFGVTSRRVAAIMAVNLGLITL

[6] = Inhibition of autoinducer-stimulated quorum sensing regulated bioluminescence in Vibrio fischeri by luminescence assay; set-up: species or system Aliivibrio fischeri
[7] = molecular target: T2, Transcriptional activator protein TraR (Agrobacterium tumefaciens, UniProt P33905); assay: Antagonist activity at Agrobacterium tumefaciens TraR receptor in presence of 100 nM 3-oxo-C8-HSL; format: functional
T2 sequence (P33905 whole entry): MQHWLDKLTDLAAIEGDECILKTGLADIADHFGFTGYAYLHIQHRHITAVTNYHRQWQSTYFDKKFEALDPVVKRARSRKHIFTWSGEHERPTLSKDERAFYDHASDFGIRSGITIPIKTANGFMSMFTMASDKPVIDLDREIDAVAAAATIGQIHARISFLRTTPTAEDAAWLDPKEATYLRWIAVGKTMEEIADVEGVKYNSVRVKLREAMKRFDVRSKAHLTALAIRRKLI

[8] = molecular target: T3, Transcriptional activator protein LuxR (Aliivibrio fischeri, UniProt P12746); assay: Antagonist activity at Vibrio fischeri luxR receptor in presence of 5 uM 3-oxo-C6-HSL; format: functional
T3 sequence (P12746 whole entry): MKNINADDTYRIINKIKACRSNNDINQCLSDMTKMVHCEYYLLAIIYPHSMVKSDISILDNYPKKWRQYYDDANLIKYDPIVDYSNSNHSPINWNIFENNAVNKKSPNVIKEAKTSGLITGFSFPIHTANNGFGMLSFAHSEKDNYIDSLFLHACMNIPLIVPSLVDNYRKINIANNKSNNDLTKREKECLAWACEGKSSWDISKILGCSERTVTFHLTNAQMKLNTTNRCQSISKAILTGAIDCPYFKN

[9] = molecular target: T3, Transcriptional activator protein LuxR; assay: Agonist activity at Vibrio fischeri luxR receptor in absence of natural autoinducer; format: functional
PC-3 = assay: Growth inhibition of human PC3 cells; format: functional, cell-based
[10] = molecular target: T1, Transcriptional activator protein LasR; assay: Agonist activity at Pseudomonas aeruginosa LasR receptor expressed in Escherichia coli in absence of natural autoinducer; format: functional
[11] = molecular target: T1, Transcriptional activator protein LasR; assay: Agonist activity at Pseudomonas aeruginosa LasR cognate receptor expressed in Escherichia coli harboring pKDT17 assessed as activation of lasB expression by LacZ reporter gene assay; format: functional

`CC(=O)N[C@H]1CSC(=O)[C@H](Cc2ccccc2)NC(=O)[C@H](CC(C)C)NC(=O)[C@H](CO)NC(=O)[C@H](CO)NC1=O` (Ac-CSSLF; thioester 1-C) showed an IC50 [1] of 188 nM, an IC50 [2] of 209 nM and an IC50 [3] of 10 nM. It also gave an IC50 [4] of 272 nM.
Work on `CCCCCCCCCC(=O)N[C@H]1CCOC1=O` yielded an IC50 [5] of 250 nM, an IC50 [6] of 39.2 nM and an IC50 [7] of 1050 nM. It also gave an IC50 [8] of 400 nM.
For `CCCCCCC(=O)N[C@H]1CCOC1=O`, the IC50 [7] was 690 nM and the IC50 [8] was 1360 nM.
`O=C(Cc1cccc([N+](=O)[O-])c1)N[C@H]1CCOC1=O` showed an EC50 [9] of 350 nM.
`O=C(CCCCCCCCCCCc1ccccc1)N[C@H]1CCOC1=O` showed an IC50 (PC-3) greater than 100 µM.
For `CCCCCCCCCCCC(=O)CC(=O)N[C@H]1CCOC1=O`, the EC50 [10] was 10 nM and the EC50 [11] was 15 nM.
`O=C(CC(=O)N[C@H]1CCOC1=O)Cc1ccccc1` gave an EC50 [10] of 540 nM.
